Reference: the supplement of paper PMC11208160

Assay: recombinant barcode read abundance after kanamycin selection (control-corrected) (log10(CPM+1)); higher = more efficient recombination; sequences stand for … in AGTGCAGAGAAAATCGGCCAGTTTTCTCTGCCTGCAGTCCGCATGCCGT…ATTTATGCAGCGGACTGCCTTTCTCCCAAAGTGATAAACCGGACAGTATCATGGACCGGTTTTCCCGGTAATCCGTATTTGCAAGGTTGGTTTCACT; site = the 11-nt target
Experimental: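 Same pooled E. coli target screen (IS621 bridge recombinase, kanamycin selection, control-corrected CPM, mean of 2 biological replicates). Here the two core-binding nucleotides of the LTG and RTG of the bridge RNA target-binding loop are mutated. Target and donor CT cores are held constant, and the other 9 guide positions match the target. The target is read from the library oligo sequence. Molecule = full bridge RNA written as DNA: nt 1-80 from the library oligo, rest WT scaffold.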

Sequence | recombinant barcode read abundance (log10)
CGCGCCCCTTGGGTTCTAACCTGTTGCGGGT [CGCGCCCCTCC_LTGcore_CT_RTGcore_AC] (site CGCGCCCCTCC) (LTG core: CT, RTG core: AC) | 0.266
GCGGGACATTGGGTTCTAACCTGTTGCCTAT [GCGGGACCTAG_LTGcore_AT_RTGcore_AT] (site GCGGGACCTAG) (LTG core: AT, RTG core: AT) | 0.11
AGGCCTCAGTGGGTTCTAACCTGTTGCCTAG [AGGCCTCCTAG_LTGcore_AG_RTGcore_CT] (site AGGCCTCCTAG) (LTG core: AG, RTG core: CT) | 0.0227
TTATAAATATGGGTTCTAACCTGTTGCCTAG [TTATAAACTAG_LTGcore_TA_RTGcore_CT] (site TTATAAACTAG) (LTG core: TA, RTG core: CT) | 0.124
GGGCGTGACTGGGTTCTAACCTGTTGCCTGT [GGGCGTGCTAG_LTGcore_AC_RTGcore_AC] (site GGGCGTGCTAG) (LTG core: AC, RTG core: AC) | 0.0793
AGGCCTCCTTGGGTTCTAACCTGTTGCCTGA [AGGCCTCCTAG_LTGcore_CT_RTGcore_TC] (site AGGCCTCCTAG) (LTG core: CT, RTG core: TC) | 0.578
ATGCTTTACTGGGTTCTAACCTGTTGCCTAG [ATGCTTTCTAG_LTGcore_AC_RTGcore_CT] (site ATGCTTTCTAG) (LTG core: AC, RTG core: CT) | 0.0722
AAACAGTCATGGGTTCTAACCTGTTGCCTAG [AAACAGTCTAG_LTGcore_CA_RTGcore_CT] (site AAACAGTCTAG) (LTG core: CA, RTG core: CT) | 1.38
TCGCGACTGTGGGTTCTAACCTGTTGCCGCA [TCGCGACCTCG_LTGcore_TG_RTGcore_TG] (site TCGCGACCTCG) (LTG core: TG, RTG core: TG) | 0.419
TAGAGGGTTTGGGTTCTAACCTGTTGCGGAG [TAGAGGGCTCC_LTGcore_TT_RTGcore_CT] (site TAGAGGGCTCC) (LTG core: TT, RTG core: CT) | 0.949
GCGCGACCTTGGGTTCTAACCTGTTGCTTTA [GCGCGACCTAA_LTGcore_CT_RTGcore_TA] (site GCGCGACCTAA) (LTG core: CT, RTG core: TA) | 0.265
GGGCGTGCTTGGGTTCTAACCTGTTGCCTAT [GGGCGTGCTAG_LTGcore_CT_RTGcore_AT] (site GGGCGTGCTAG) (LTG core: CT, RTG core: AT) | 1.05
AGGCGGGCTTGGGTTCTAACCTGTTGCGGCC [AGGCGGGCTCC_LTGcore_CT_RTGcore_GG] (site AGGCGGGCTCC) (LTG core: CT, RTG core: GG) | 0.367
AGGCCTCACTGGGTTCTAACCTGTTGCCTGT [AGGCCTCCTAG_LTGcore_AC_RTGcore_AC] (site AGGCCTCCTAG) (LTG core: AC, RTG core: AC) | 0.113
ATGTCCCCATGGGTTCTAACCTGTTGCTCAG [ATGTCCCCTGA_LTGcore_CA_RTGcore_CT] (site ATGTCCCCTGA) (LTG core: CA, RTG core: CT) | 0.527
AGTCTTACATGGGTTCTAACCTGTTGCCAAG [AGTCTTACTTG_LTGcore_CA_RTGcore_CT] (site AGTCTTACTTG) (LTG core: CA, RTG core: CT) | 0.033
TCTACCCCTTGGGTTCTAACCTGTTGCTGCT [TCTACCCCTCA_LTGcore_CT_RTGcore_AG] (site TCTACCCCTCA) (LTG core: CT, RTG core: AG) | 0.0324
GGGCGTGCTTGGGTTCTAACCTGTTGCCTAC [GGGCGTGCTAG_LTGcore_CT_RTGcore_GT] (site GGGCGTGCTAG) (LTG core: CT, RTG core: GT) | 0.107
GGTGCCCACTGGGTTCTAACCTGTTGCCGAG [GGTGCCCCTCG_LTGcore_AC_RTGcore_CT] (site GGTGCCCCTCG) (LTG core: AC, RTG core: CT) | 0.416
GGCTCCCTCTGGGTTCTAACCTGTTGCGGGA [GGCTCCCCTCC_LTGcore_TC_RTGcore_TC] (site GGCTCCCCTCC) (LTG core: TC, RTG core: TC) | 0.238
GGGAGCCGCTGGGTTCTAACCTGTTGCTGGC [GGGAGCCCTCA_LTGcore_GC_RTGcore_GC] (site GGGAGCCCTCA) (LTG core: GC, RTG core: GC) | 0.0416
TTATAAACTTGGGTTCTAACCTGTTGCCTCC [TTATAAACTAG_LTGcore_CT_RTGcore_GG] (site TTATAAACTAG) (LTG core: CT, RTG core: GG) | 0.179
AGGAGGTCATGGGTTCTAACCTGTTGCCTAG [AGGAGGTCTAG_LTGcore_CA_RTGcore_CT] (site AGGAGGTCTAG) (LTG core: CA, RTG core: CT) | 0.207
GCGGGACACTGGGTTCTAACCTGTTGCCTAG [GCGGGACCTAG_LTGcore_AC_RTGcore_CT] (site GCGGGACCTAG) (LTG core: AC, RTG core: CT) | 0.121
AGGCCTCCTTGGGTTCTAACCTGTTGCCTAA [AGGCCTCCTAG_LTGcore_CT_RTGcore_TT] (site AGGCCTCCTAG) (LTG core: CT, RTG core: TT) | 0.109
ACGGGACTCTGGGTTCTAACCTGTTGCAGGA [ACGGGACCTCT_LTGcore_TC_RTGcore_TC] (site ACGGGACCTCT) (LTG core: TC, RTG core: TC) | 0

Assay: recombinant barcode read abundance after kanamycin selection (control-corrected) (log10(CPM+1)); higher = more efficient recombination; sequences stand for … in AGTGCAGAGAAAATCGGCCAGTTTTCTCTGCCTGCAGTCCGCATGCCGT…AGATTTATGCAGCGGACTGCCTTTCTCCCAAAGTGATAAACCGGACAGTATCATGGACCGGTTTTCCCGGTAATCCGTATTTGCAAGGTTGGTTTCACT; site = the 11-nt target
How it was run: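 Recombination efficiency comes from barcode counts at recombinant junctions, converted to counts per million, averaged and corrected against the control. Values appear as log10(CPM+1). They were obtained from a pooled E. coli screen in which each oligo paired a target with an IS621 bridge RNA target-binding loop, and cells were plated in duplicate on chloramphenicol/ampicillin LB agar or on chloramphenicol/ampicillin/kanamycin with 0.1 mM IPTG.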

Sequence | recombinant barcode read abundance (log10)
TGCTGTACTTGGGTTCTAACCTGTTGCCT (site TGCTGTACTAG) | 0
AGCCCTCCTTGGGTTCTAACCTGTTGCTT (site AGCCCTCCTGA) | 0.038
TAGCGCACTTGGGTTCTAACCTGTTGCGG (site TAGCGCACTCC) | 1.33
TCGAACCCTTGGGTTCTAACCTGTTGCGG (site TCAAACCCTCC) | 0.991
CGCTAGACTTGGGTTCTAACCTGTTGCCT (site CGCTGGACTAG) | 0.0628
GGGTCGGCTTGGGTTCTAACCTGTTGCGT (site GGGTCGGCTCC) | 0.076
ACGAGCCCTTGGGTTCTAACCTGTTGCCA (site ACGCACCCTTG) | 0.151
GGATTCTCTTGGGTTCTAACCTGTTGCCT (site GGATTCTCTAG) | 1.83
CTGTGTCCTTGGGTTCTAACCTGTTGCGG (site TCAGCCTCTAG) | 0.214
TGTATGACTTGGGTTCTAACCTGTTGCCT (site GGTATGACTAG) | 0.263
CGATCACCTTGGGTTCTAACCTGTTGCCT (site CGATCACCTAG) | 0.105
GAACAGCCTTGGGTTCTAACCTGTTGCGT (site GAACAGCCTAC) | 0.943
TAGCATACTTGGGTTCTAACCTGTTGCCC (site TAGCATACTGG) | 0.941
CATTCAACTTGGGTTCTAACCTGTTGCCT (site CATTCAACTCG) | 0.115
TGTTGCACTTGGGTTCTAACCTGTTGCCT (site TGTTGGCCTAG) | 0.0587
CAAAAGGCTTGGGTTCTAACCTGTTGCCG (site CAAAAGGCTCG) | 1.18
TCTGTATCTTGGGTTCTAACCTGTTGCCT (site ACTGTATCTAG) | 0.28
GGTCGCGCTTGGGTTCTAACCTGTTGCCT (site GGTCGCGCTAG) | 0.535
CTGGGAACTTGGGTTCTAACCTGTTGCAG (site CTGGGAACTCT) | 0.836
CTGATCCCTTGGGTTCTAACCTGTTGCCT (site CGGATCCCTAG) | 0.255
TTCTACCCTTGGGTTCTAACCTGTTGCCT (site TTCTACCCTAG) | 0.449
AGGACGACTTGGGTTCTAACCTGTTGCCT (site AGCGCGACTAG) | 0.0505
GTCAAAGCTTGGGTTCTAACCTGTTGCCA (site GTCACAGCTAG) | 0.407
CCTTGTCCTTGGGTTCTAACCTGTTGCAG (site CCTTGTCCTCT) | 0.79
TCTGGCACTTGGGTTCTAACCTGTTGCCT (site TCTGGCACTAG) | 0.0487
GGCTGTCCTTGGGTTCTAACCTGTTGCGT (site CTAAAAGCTTT) | 0.0937
CTGCACTCTTGGGTTCTAACCTGTTGCCA (site CTGTACTCTAG) | 0.28
TCCGCTTCTTGGGTTCTAACCTGTTGCCT (site TCCGCTACTAG) | 0.321
GCACGGACTTGGGTTCTAACCTGTTGCAG (site GCATGGACTCT) | 0.3
ACATCTCCTTGGGTTCTAACCTGTTGCCT (site ACATCTCCTAG) | 0.503
